# Measured values taken from publication PMC6465301, “Enzyme-responsive progelator cyclic peptides for minimally invasive delivery to the heart post-myocardial infarction” (Nature Communications, 2019).
# Bridge positions count the residues as written; N and C are the ends. Peptide text beside a SMILES is read from it.
# Columns and labels:
# [1] = target: T1, thermolysin (Bacillus thermoproteolyticus, UniProt P00800); experiment: Time course rheology of thermolysin-induced bulk gelation and gel stability; format: in vitro ADME; settings: 10 mM in 1× DPBS pH 7.4, thermolysin 1:4500, 37 °C, continuous rheological measurement
# T1 construct: purchased Promega V4001
# T1 sequence (P00800 233-548): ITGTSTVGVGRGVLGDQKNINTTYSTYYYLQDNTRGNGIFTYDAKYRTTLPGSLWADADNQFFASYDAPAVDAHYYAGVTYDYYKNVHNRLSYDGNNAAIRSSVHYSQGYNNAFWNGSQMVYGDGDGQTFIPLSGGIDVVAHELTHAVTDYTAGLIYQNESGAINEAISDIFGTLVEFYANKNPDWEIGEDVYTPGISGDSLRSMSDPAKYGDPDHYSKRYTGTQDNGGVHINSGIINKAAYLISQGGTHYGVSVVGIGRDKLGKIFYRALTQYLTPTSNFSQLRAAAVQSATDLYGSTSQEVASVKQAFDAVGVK
# Description: All peptide samples were prepared at 10 mM peptide, except for those used to assess the effect of SAP functionalization with respect to weight (15 mg mL^−1). Viscous and viscoelastic properties were assessed using a stress-controlled rheometer (TA Instruments AR-G2) equipped with a Peltier plate to control temperature and a 20 mm diameter parallel plate geometry. Unless otherwise stated all measurements were taken at an angular frequency of 2.5 rad s^−1, strain of 0.5%, and temperature of 37 °C. Measurements were performed with a gap height of 1000 µm and repeated three times (except for step-strain and time course measurements) to ensure reproducibility. To prevent water evaporation, mineral oil was wrapped around the edge of the geometry at the air–sample interface. For viscoelastic measurements the apparatus was used in oscillatory mode. […] The dynamic moduli of the hydrogels were measured as a function of frequency in the range 0.25–100 rad s^−1 at a strain of 0.5%. Continuous step-strain oscillations were used to monitor hydrogel healing through disruption (3 min, 100% strain) and recovery (15 min, 0.5% strain) cycles (n = 3). For viscosity measurements the apparatus was used in steady-state flow mode. The viscosity of the samples was measured as a function of shear rate in the range 0.1–10 s^−1 (5% tolerance). […]
# [2] = test system: red blood cells (RBCs); experiment: Hemolysis assay of red blood cells; format: cell-based; settings: positive control at 1%, defines 100% hemolysis; human RBCs, 1 h, 37 °C; mean of n = 4
# Description: RBCs were isolated by centrifugation of 40 mL citrated whole human blood at 500 × g for 5 min, followed by gentle washes with 150 mM NaCl (×1) and 1× DPBS (×3). Isolated RBCs were diluted 1:50 into 1× DPBS (pH 7.4) and lightly agitated to prevent settling. Briefly, 190 µL of dilute RBCs and 10 µL of peptide stock or additive (20× final concentration) were mixed and added to a 96-well plate (n = 4 repeats), covered, and incubated at 37 °C for 1 h. Plates were centrifuged at 500 × g to pellet intact RBCs using a centrifuge equipped with a microplate rotor. Supernatant (100 µL) was transferred to a new 96-well plate, taking care not to disturb the pellet. Absorbance of the supernatant was measured at 540 nm to detect released hemoglobin. To calculate % hemolysis, absorbances were corrected for background absorbance from untreated vehicle and then normalized to 1% Triton X-100-treated RBCs to represent 100% hemolysis. %Hemolysis was calculated according to the following equation:2 %Hemolysis=Absexperiemental-Absnegativecontrol/Abspositivecontrol-Absnegativecontrol×100, where Absexperiemental is the average well absorbance pertaining to RBCs pertaining to the additive sample being analyzed, Absnegative control is the average well absorbance for RBCs incubated with vehicle (1× DPBS), and Abspositive control is the average well absorbance for RBCs containing 1% Triton X-100. […]
# [3] = test system: platelet-poor plasma (PPP)
# Description: For all measurements, peptide stocks in 1× DPBS were prepared such that the final concentrations (v/v) in blood or plasma were 1:10, 1:100, 1:500,1:1000, 1:5000, 1:10,000, and 1:20,000 (peptide/fluid volume). Controls with collagen as a procoagulant initial platelet-adhesive surface (0.095 mg mL^−1 or 1:240 dilution) or with calcium chelated by sodium citrate utilized 1× DPBS as a vehicle to ensure consistent blood dilution in all experiments. Peptide stocks, whole human blood, isolated RBCs, and PPP were warmed to 37 °C immediately prior to use. Plate reader measurements were conducted on an EnSpire Multimode Plate Reader with 96-well tissue culture plates (TCP).
# PPP was isolated from citrated whole human blood through two rounds of centrifugation at 2000 × g for 10 min and collection of the upper two-third layer. Briefly, 100 µL of PPP, 50 µL of peptide stock or additive (4× final concentration), and 50 µL of CaCl2 (50 mM) were mixed and added to a 96-well plate and incubated at 37 °C for kinetics measurements. For each sample, n = 6 repeats were conducted. Coagulation profiles were obtained by measuring well absorbance at 405 nm at 30 s intervals for 60 min. Onset to clotting was detected as a sharp increase in sample turbidity.
compound,measurement,setting,value
CC(C)C[C@@H]1NC(=O)CNC(=O)[C@H](CC(C)C)NC(=O)[C@@H]2CCCN2C(=O)[C@H](CC(C)C)NC(=O)[C@H](CC(=O)O)NC(=O)[C@H](CC(C)C)NC(=O)[C@H](CCCCN)NC(=O)[C@H](CC(C)C)NC(=O)[C@H](CC(=O)O)NC(=O)[C@H](CC(C)C)NC(=O)[C@H](CCCCN)NC(=O)[C@H](CC(C)C)NC(=O)[C@H](CC(=O)O)NC(=O)[C@H](CC(C)C)NC(=O)[C@H](CCCCN)NC(=O)[C@@H](N)CSSC[C@@H](C(N)=O)NC(=O)CNC(=O)[C@H](C)NC1=O [KLDLCyclic] (H-CKLDLKLDLKLDLPLGLAGC-NH2; disulfide 1-20),Stability of viscoelastic properties of resulting gel in the presence of thermolysin,[1],no change for up to 3 days
Triton X-100,%Hemolysis,[2],100.00%
collagen,Pro-thrombotic profile in PPP,[3],lack of change in pro-thrombotic profiles
